These results are taken from the NIST ThermoML archive (doi:10.1021/je900436f).

For this series the following is noted: 298.15 K, Liquid.

Numbers after ± are expanded uncertainties.

For orientation: mass density means mass per unit of volume. With `CCCCCl` [1-chlorobutane], the mass density (13.52 kPa) amounted to 880.805 ± 0.6 kg/m3.

Take `CC(C)CO` [2-methyl-1-propanol]: the mass density (1.535 kPa) amounted to 797.775 ± 0.6 kg/m3.

Regarding `CC(C)(C)O` [2-methylpropan-2-ol], where the note is “5.605 kPa”, the mass density was found to be 780.885 ± 0.75 kg/m3.

In the case of `CCCCCC` [hexane], the mass density (20.22 kPa) came out at 654.96 ± 1.4 kg/m3.
